SMILES	melting point [°C]
Cc1cc(C(F)(C(F)(F)F)C(F)(F)F)ccc1NC(=O)c1nn(-c2ccccc2)c(Br)c1C(=O)NC(C)C	164 to 166
Cc1cc(C(F)(C(F)(F)F)C(F)(F)F)ccc1NC(=O)c1ccc[n+]([O-])c1C(=O)NC(C)C	108 to 110
